For orientation: pIC50 means −log10 of the IC50, conventionally taken in molar units. Lower therefore signals a large IC50.

Structures are written as SMILES. pIC50: −log10 of the molar value. Counter-ions that a name gives are not always drawn.

The target of this test is T1, epithelial sodium channel (ENaC) (Homo sapiens, UniProt P37088+P51168+P51170).
T1 construct: host or cells: primary Human Bronchial Epithelial cells (HBECs), air-liquid interface culture
T1 sequence (P37088 1-669): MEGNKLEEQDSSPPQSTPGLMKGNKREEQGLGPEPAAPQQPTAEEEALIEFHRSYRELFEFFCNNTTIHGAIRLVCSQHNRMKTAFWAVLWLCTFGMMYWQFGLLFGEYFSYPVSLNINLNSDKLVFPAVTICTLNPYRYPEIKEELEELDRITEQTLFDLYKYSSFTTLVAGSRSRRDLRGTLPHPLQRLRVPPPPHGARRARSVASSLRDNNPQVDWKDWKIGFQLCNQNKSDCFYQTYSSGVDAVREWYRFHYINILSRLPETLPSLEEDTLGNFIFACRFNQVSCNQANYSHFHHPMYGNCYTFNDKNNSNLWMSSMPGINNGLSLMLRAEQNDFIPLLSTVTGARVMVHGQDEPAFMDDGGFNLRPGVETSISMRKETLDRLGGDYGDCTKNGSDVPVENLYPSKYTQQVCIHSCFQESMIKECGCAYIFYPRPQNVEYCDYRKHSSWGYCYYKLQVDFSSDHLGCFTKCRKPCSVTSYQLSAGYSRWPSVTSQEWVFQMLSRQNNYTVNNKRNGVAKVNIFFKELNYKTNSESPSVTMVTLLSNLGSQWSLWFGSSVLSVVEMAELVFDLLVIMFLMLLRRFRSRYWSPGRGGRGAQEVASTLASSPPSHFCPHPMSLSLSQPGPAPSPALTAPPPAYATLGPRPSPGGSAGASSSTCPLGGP
T1 sequence (P51168 1-640): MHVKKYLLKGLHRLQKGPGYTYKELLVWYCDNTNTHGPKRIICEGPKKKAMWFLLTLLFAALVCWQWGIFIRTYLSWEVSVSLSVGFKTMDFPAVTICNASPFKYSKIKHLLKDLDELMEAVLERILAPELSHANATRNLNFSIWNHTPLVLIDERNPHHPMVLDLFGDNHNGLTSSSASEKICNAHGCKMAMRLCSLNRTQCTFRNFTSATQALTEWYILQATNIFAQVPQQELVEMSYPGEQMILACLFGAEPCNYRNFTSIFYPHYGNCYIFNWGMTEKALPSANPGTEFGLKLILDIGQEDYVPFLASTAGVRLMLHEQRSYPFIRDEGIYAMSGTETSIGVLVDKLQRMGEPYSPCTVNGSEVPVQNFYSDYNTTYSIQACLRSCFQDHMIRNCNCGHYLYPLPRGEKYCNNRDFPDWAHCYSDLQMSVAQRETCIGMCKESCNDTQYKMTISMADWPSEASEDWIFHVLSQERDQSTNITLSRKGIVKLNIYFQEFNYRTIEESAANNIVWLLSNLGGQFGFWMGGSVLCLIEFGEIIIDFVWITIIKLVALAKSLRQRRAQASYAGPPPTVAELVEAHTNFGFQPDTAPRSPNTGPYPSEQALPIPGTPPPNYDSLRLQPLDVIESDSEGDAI
T1 sequence (P51170 1-649): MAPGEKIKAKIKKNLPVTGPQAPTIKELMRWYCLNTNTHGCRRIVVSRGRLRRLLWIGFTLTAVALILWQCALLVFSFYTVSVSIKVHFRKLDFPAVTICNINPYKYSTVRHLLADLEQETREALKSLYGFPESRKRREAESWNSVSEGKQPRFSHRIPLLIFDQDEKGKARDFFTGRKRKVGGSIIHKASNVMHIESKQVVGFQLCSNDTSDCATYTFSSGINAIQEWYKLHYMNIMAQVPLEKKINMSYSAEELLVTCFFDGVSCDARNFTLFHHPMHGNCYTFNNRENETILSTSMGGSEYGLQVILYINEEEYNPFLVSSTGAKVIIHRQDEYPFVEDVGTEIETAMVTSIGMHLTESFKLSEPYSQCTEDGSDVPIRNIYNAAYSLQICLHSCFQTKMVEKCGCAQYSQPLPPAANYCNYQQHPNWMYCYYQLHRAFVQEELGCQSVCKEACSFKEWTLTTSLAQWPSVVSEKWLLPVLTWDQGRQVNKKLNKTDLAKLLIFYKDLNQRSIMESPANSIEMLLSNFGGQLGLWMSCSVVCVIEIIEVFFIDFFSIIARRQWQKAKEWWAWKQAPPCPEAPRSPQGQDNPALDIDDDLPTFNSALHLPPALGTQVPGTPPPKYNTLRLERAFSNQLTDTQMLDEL
Briefly: Short circuit current (ISC) measurements in human bronchial epithelial cells: inhibition of the amiloride-sensitive ISC (ENaC blockade). The format is cell-based. Particulars: Human Bronchial Epithelial cells (HBECs) at air-liquid interface, Ussing chamber, compound added to apical chamber. The procedure: Human Bronchial Epithelial cells (HBECs) (Cambrex) were cultured under air-liquid interface conditions to provide a well differentiated mucociliary phenotype.
HBECs were cultured using a modification of the method described by Gray and colleagues (Gray et al., 1996). Cells were seeded in plastic T-162 flasks and were grown in bronchial epithelial cell growth medium (BEGM; Cambrex) supplemented with bovine pituitary extract (52 μg/ml), hydrocortisone (0.5 μg/ml), human recombinant epidermal growth factor (0.5 ng/ml), epinephrine (0.5 μg/ml), transferrin (10 μg/ml), insulin (5 μg/ml), retinoic acid (0.1 μg/ml), triiodothyronine ([…]), gentamycin (50 μg/ml) and amphotericin B (50 ng/ml). Medium was changed every 48 hours until cells were 90% confluent. Cells were then passaged and seeded (8.25×10^4 cells/insert) on polycarbonate Snapwell inserts (Costar) in differentiation media containing 50% DMEM in BEGM with the same supplements as above but without triiodothyronine and a final retinoic acid concentration of 50 nM (all-trans retinoic acid). Cells were maintained submerged for the first 7 days in culture, after which time they were exposed to an apical air interface for the remainder of the culture period. At this time, media was changed to DMEM:F12 media containing 2% v/v Ultroser G for the remainder of culture. Amphotericin B was removed from all media 3 feeds prior to use in the Ussing Chambers. Cells were used between days 7 and 21 after establishment of the apical-air interface. At all stages of culture, cells were maintained at 37° C. in 5% CO2 in an air incubator.
Short Circuit Current (ISC) Measurements
Snapwell inserts were mounted in Vertical Diffusion Chambers (Costar) and were bathed with continuously gassed Ringer solution (5% CO2 in O2; pH 7.4) maintained at 37° C. containing (in mM): 120 NaCl, 25 NaHCO3, 3.3 KH2PO4, 0.8 K2HPO4, 1.2 CaCl2, 1.2 MgCl2, and 10 glucose. The solution osmolarity was between 280 and 300 mOsmol/kg H2O for all physiological salt solutions used. Cells were voltage clamped to 0 mV (model EVC4000; WPI). RT was measured by applying a 1- or 2-mV pulse at 30-s intervals and calculating RT by Ohm's law. Data were recorded using a PowerLab workstation (ADInstruments).
Test compounds were prepared as a 10 mM stock solution in DMSO (95%). Serial 3-fold dilutions were freshly prepared in an appropriate vehicle (distilled H2O or Ringers solution). The initial concentration was added to the apical chamber as a 1000× concentrate in 5 μl, resulting in a final 1× concentration the 5 ml volume of the Ussing chamber. Subsequent additions of compound were added in a 3.3 μl volume of the 1000× serially diluted stock solution. At the completion of the concentration-response experiment, amiloride (10 μM) was added into the apical chamber to enable the total amiloride-sensitive current to be measured. An amiloride control IC50 was established at the start of each experiment.
Results are expressed as the mean % inhibition of the amiloride-sensitive ISC. Concentration-response curves were plotted and IC50 values generated using GraphPad Prism 3.02. Cell inserts were typically run in duplicate and the IC50 calculated on the mean % inhibition data.
`N=C(NC(=O)c1nc(Cl)c(N)nc1N)NC1CCN(C(=O)Nc2ccc(NC(=O)N3CCC(NC(=N)NC(=O)c4nc(Cl)c(N)nc4N)CC3)cc2)CC1` [Example 2, N,N′-(1,1′-(1,4-phenylenebis(azanediyl))bis(oxomethylene)bis(piperidine-4,1-diyl))bis(azanediyl)bis(iminomethylene)bis(3,5-diamino-6-chloropyrazine-2-carboxamide)hydrobromide] gave a negative-log IC50 (pIC50) of 8.82.

`N=C(NC(=O)c1nc(Cl)c(N)nc1N)NC1CCN(C(=O)c2ccc(C(=O)N3CCC(NC(=N)NC(=O)c4nc(Cl)c(N)nc4N)CC3)cc2)CC1` [Example 4, N,N′-(1,1′-(1,4-phenylene)bis(oxomethylene)bis(piperidine-4,1-diyl))bis(azanediyl)bis(iminomethylene)bis(3,5-diamino-6-chloropyrazine-2-carboxamide)hydrochloride] gave a pIC50 of 8.00. In the case of `N=C(NC(=O)c1nc(Cl)c(N)nc1N)NC1CCN(c2ncnc(N3CCC(NC(=N)NC(=O)c4nc(Cl)c(N)nc4N)CC3)n2)CC1` [Example 7, N,N′-(1,1′-(1,3,5-triazine-2,4-diyl)bis(piperidine-4,1-diyl))bis(azanediyl)bis(iminomethylene)bis(3,5-diamino-6-chloropyrazine-2-carboxamide)hydrochloride], the pIC50 was 8.22. The same measure for `CCCCN(CCCC)CCCNc1nc(N2CCC(NC(=N)NC(=O)c3nc(Cl)c(N)nc3N)CC2)nc(N2CCC(NC(=N)NC(=O)c3nc(Cl)c(N)nc3N)CC2)n1` [Example 13, N,N′-(1,1′-(6-(3-(dibutylamino)propylamino)-1,3,5-triazine-2,4-diyl)bis(piperidine-4,1-diyl))bis(azanediyl)bis(iminomethylene)bis(3,5-diamino-6-chloropyrazine-2-carboxamide) trifluoroacetate]: 9.00. With `N/C(=N\C(=O)c1nc(Cl)c(N)nc1N)NC1CCN(C(=O)NCCCCNC(=O)N2CCC(N/C(N)=N/C(=O)c3nc(Cl)c(N)nc3N)CC2)CC1` [Example 23, N,N′-(1,1′-(Butane-1,4-diylbis(azanediyl))bis(oxomethylene)bis(piperidine-4,1-diyl))bis(azanediyl)bis(aminomethan-1-yl-1-ylidene)bis(3,5-diamino-6-chloropyrazine-2-carboxamide) hydrobromide], the pIC50 is 8.80.

The values above are taken from patent US8318935B2, “Organic compounds 75074” (Novartis AG, priority 2007, dated 2012).
